Reference: ChEMBL document CHEMBL6092162, “Identification of novel and potent triazoles targeting CYP51 for antifungal: Design, synthesis, and biological study” (Eur J Med Chem, 2024)
≈ marks a conversion by molar mass, not a printed value.

Tests used:
Type in all cases: functional
Candida albicans [1] = experiment: Antifungal activity against Candida albicans SC5314 assessed as inhibition of fungal growth by CLSI M27-A3 guidelines based method
Candida tropicalis = experiment: Antifungal activity against Candida tropicalis GIM 2.183 assessed as inhibition of fungal growth by CLSI M27-A3 guidelines based method
Cryptococcus neoformans = experiment: Antifungal activity against Cryptococcus neoformans CGMCC 2.3161 assessed as inhibition of fungal growth by CLSI M27-A3 guidelines based method
Candida albicans [2] = experiment: Antifungal activity against Candida albicans GIM 2.194 assessed as inhibition of fungal growth by CLSI M27-A3 guidelines based method
Candida parapsilosis = experiment: Antifungal activity against Candida parapsilosis GIM 2.190 assessed as inhibition of fungal growth by CLSI M27-A3 guidelines based method; conditions: Lodderomyces parapsilosis
Nakaseomyces glabratus = experiment: Antifungal activity against Candida glabrata assessed as inhibition of fungal growth by CLSI M27-A3 guidelines based method
Pichia kudriavzevii = experiment: Antifungal activity against Candida krusei GIM 2.1 assessed as inhibition of fungal growth by CLSI M27-A3 guidelines based method

Compound	MIC80 (Candida albicans [1])	MIC80 (Candida tropicalis)	MIC80 (Cryptococcus neoformans)	MIC80 (Candida albicans [2])	MIC80 (Candida parapsilosis)	MIC80 (Nakaseomyces glabratus)	MIC80 (Pichia kudriavzevii)
C#Cc1ccc(CN2CCN(c3ccc(CN(C)CC(O)(Cn4cncn4)c4ccc(F)cc4F)cc3)CC2)cc1 (stereo not given)	0.1 µg/mL (≈ 0.18 µM)	0.1 µg/mL (≈ 0.18 µM)	3.2 µg/mL (≈ 5.75 µM)	0.2 µg/mL (≈ 0.359 µM)	0.4 µg/mL (≈ 0.719 µM)	3.2 µg/mL (≈ 5.75 µM)	3.2 µg/mL (≈ 5.75 µM)
CCC(=O)N1CCN(c2ccc(CN(C)CC(O)(Cn3cncn3)c3ccc(F)cc3F)cc2)CC1 (stereo not given)	0.25 µg/mL (≈ 0.501 µM)	0.5 µg/mL (≈ 1 µM)	8 µg/mL (≈ 16 µM)	0.5 µg/mL (≈ 1 µM)	0.1 µg/mL (≈ 0.201 µM)	16 µg/mL (≈ 32.1 µM)	16 µg/mL (≈ 32.1 µM)
CN1CCN(c2ccc(CN(C)CC(O)(Cn3cncn3)c3ccc(F)cc3F)cc2)CC1 (stereo not given)	8 µg/mL (≈ 17.5 µM)	4 µg/mL (≈ 8.76 µM)	> 32 µg/mL	8 µg/mL (≈ 17.5 µM)	8 µg/mL (≈ 17.5 µM)	> 32 µg/mL	> 32 µg/mL
CN(Cc1ccc(N2CCN(Cc3ccccc3I)CC2)cc1)CC(O)(Cn1cncn1)c1ccc(F)cc1F (stereo not given)	0.013 µg/mL (≈ 0.0197 µM)	0.013 µg/mL (≈ 0.0197 µM)	–	0.013 µg/mL (≈ 0.0197 µM)	0.025 µg/mL (≈ 0.038 µM)	0.2 µg/mL (≈ 0.304 µM)	0.1 µg/mL (≈ 0.152 µM)
CN(Cc1ccc(N2CCN(Cc3c(Br)cccc3Br)CC2)cc1)CC(O)(Cn1cncn1)c1ccc(F)cc1F (stereo not given)	0.013 µg/mL (≈ 0.0188 µM)	0.006 µg/mL (≈ 0.00869 µM)	–	0.006 µg/mL (≈ 0.00869 µM)	0.006 µg/mL (≈ 0.00869 µM)	0.1 µg/mL (≈ 0.145 µM)	0.1 µg/mL (≈ 0.145 µM)
Cc1ccc(CN2CCN(c3ccc(CN(C)CC(O)(Cn4cncn4)c4ccc(F)cc4F)cc3)CC2)cc1 (stereo not given)	0.2 µg/mL (≈ 0.366 µM)	0.2 µg/mL (≈ 0.366 µM)	3.2 µg/mL (≈ 5.85 µM)	0.2 µg/mL (≈ 0.366 µM)	0.4 µg/mL (≈ 0.732 µM)	1.6 µg/mL (≈ 2.93 µM)	0.8 µg/mL (≈ 1.46 µM)
CN(Cc1ccc(N2CCN(Cc3cccc(I)c3)CC2)cc1)CC(O)(Cn1cncn1)c1ccc(F)cc1F (stereo not given)	0.25 µg/mL (≈ 0.38 µM)	0.013 µg/mL (≈ 0.0197 µM)	–	0.025 µg/mL (≈ 0.038 µM)	0.025 µg/mL (≈ 0.038 µM)	0.4 µg/mL (≈ 0.607 µM)	0.2 µg/mL (≈ 0.304 µM)
CN(Cc1ccc(N2CCN(Cc3ccccc3)CC2)cc1)CC(O)(Cn1cncn1)c1ccc(F)cc1F (stereo not given)	0.013 µg/mL (≈ 0.0244 µM)	0.013 µg/mL (≈ 0.0244 µM)	0.2 µg/mL (≈ 0.375 µM)	0.013 µg/mL (≈ 0.0244 µM)	0.025 µg/mL (≈ 0.0469 µM)	0.4 µg/mL (≈ 0.751 µM)	0.4 µg/mL (≈ 0.751 µM)
CN(Cc1ccc(N2CCN(C(=O)c3ccccc3)CC2)cc1)CC(O)(Cn1cncn1)c1ccc(F)cc1F (stereo not given)	0.025 µg/mL (≈ 0.0457 µM)	0.013 µg/mL (≈ 0.0238 µM)	0.4 µg/mL (≈ 0.732 µM)	0.013 µg/mL (≈ 0.0238 µM)	0.025 µg/mL (≈ 0.0457 µM)	1.6 µg/mL (≈ 2.93 µM)	1.6 µg/mL (≈ 2.93 µM)
CN(Cc1ccc(N2CCN(Cc3ccc(N)cc3)CC2)cc1)CC(O)(Cn1cncn1)c1ccc(F)cc1F (stereo not given)	1.6 µg/mL (≈ 2.92 µM)	1.6 µg/mL (≈ 2.92 µM)	3.2 µg/mL (≈ 5.84 µM)	3.2 µg/mL (≈ 5.84 µM)	3.2 µg/mL (≈ 5.84 µM)	3.2 µg/mL (≈ 5.84 µM)	3.2 µg/mL (≈ 5.84 µM)
CN(Cc1ccc(N2CCN(Cc3ccc(S(C)(=O)=O)cc3)CC2)cc1)CC(O)(Cn1cncn1)c1ccc(F)cc1F (stereo not given)	0.4 µg/mL (≈ 0.655 µM)	0.4 µg/mL (≈ 0.655 µM)	3.2 µg/mL (≈ 5.24 µM)	0.8 µg/mL (≈ 1.31 µM)	0.8 µg/mL (≈ 1.31 µM)	3.2 µg/mL (≈ 5.24 µM)	3.2 µg/mL (≈ 5.24 µM)
CN(Cc1ccc(N2CCN(Cc3cccc(Cl)c3)CC2)cc1)CC(O)(Cn1cncn1)c1ccc(F)cc1F (stereo not given)	0.025 µg/mL (≈ 0.0441 µM)	0.013 µg/mL (≈ 0.0229 µM)	0.1 µg/mL (≈ 0.176 µM)	0.013 µg/mL (≈ 0.0229 µM)	0.006 µg/mL (≈ 0.0106 µM)	0.2 µg/mL (≈ 0.353 µM)	0.1 µg/mL (≈ 0.176 µM)
CC(C)c1ccc(CN2CCN(c3ccc(CN(C)CC(O)(Cn4cncn4)c4ccc(F)cc4F)cc3)CC2)cc1 (stereo not given)	0.013 µg/mL (≈ 0.0226 µM)	0.25 µg/mL (≈ 0.435 µM)	0.1 µg/mL (≈ 0.174 µM)	0.013 µg/mL (≈ 0.0226 µM)	0.013 µg/mL (≈ 0.0226 µM)	0.4 µg/mL (≈ 0.696 µM)	–
CC(=O)N1CCN(c2ccc(CN(C)CC(O)(Cn3cncn3)c3ccc(F)cc3F)cc2)CC1 (stereo not given)	0.5 µg/mL (≈ 1.03 µM)	0.5 µg/mL (≈ 1.03 µM)	8 µg/mL (≈ 16.5 µM)	0.1 µg/mL (≈ 0.206 µM)	0.1 µg/mL (≈ 0.206 µM)	16 µg/mL (≈ 33 µM)	16 µg/mL (≈ 33 µM)
CN(Cc1ccc(N2CCN(Cc3ccc(C#N)cc3)CC2)cc1)CC(O)(Cn1cncn1)c1ccc(F)cc1F (stereo not given)	0.05 µg/mL (≈ 0.0897 µM)	0.05 µg/mL (≈ 0.0897 µM)	0.2 µg/mL (≈ 0.359 µM)	0.05 µg/mL (≈ 0.0897 µM)	0.1 µg/mL (≈ 0.179 µM)	1.6 µg/mL (≈ 2.87 µM)	1.6 µg/mL (≈ 2.87 µM)
COc1ccc(CN2CCN(c3ccc(CN(C)CC(O)(Cn4cncn4)c4ccc(F)cc4F)cc3)CC2)cc1 (stereo not given)	0.5 µg/mL (≈ 0.889 µM)	0.2 µg/mL (≈ 0.355 µM)	0.8 µg/mL (≈ 1.42 µM)	0.1 µg/mL (≈ 0.178 µM)	0.1 µg/mL (≈ 0.178 µM)	3.2 µg/mL (≈ 5.69 µM)	0.8 µg/mL (≈ 1.42 µM)
CN(Cc1ccc(N2CCN(Cc3ccccc3Cl)CC2)cc1)CC(O)(Cn1cncn1)c1ccc(F)cc1F (stereo not given)	0.025 µg/mL (≈ 0.0441 µM)	0.013 µg/mL (≈ 0.0229 µM)	0.1 µg/mL (≈ 0.176 µM)	0.006 µg/mL (≈ 0.0106 µM)	0.006 µg/mL (≈ 0.0106 µM)	0.2 µg/mL (≈ 0.353 µM)	0.1 µg/mL (≈ 0.176 µM)
